Assay results: PubChem BioAssay (NCI)
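48-hour exposure; five concentrations; linearly interpolated endpoints. At the TGI there is no net growth.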

Assays:
Experiment in all cases: NCI-60 cell line screen, 48 h
LOX IMVI melanoma = system: LOX IMVI melanoma
SK-MEL-28 melanoma = system: SK-MEL-28 melanoma
MCF7 breast = system: MCF7 breast
U251 CNS = system: U251 CNS
OVCAR-5 ovarian = system: OVCAR-5 ovarian
SNB-75 CNS = system: SNB-75 CNS
ACHN renal = system: ACHN renal
RXF 393 renal = system: RXF 393 renal
MDA-MB-231 breast = system: MDA-MB-231 breast
SK-MEL-5 melanoma = system: SK-MEL-5 melanoma
CAKI-1 renal = system: CAKI-1 renal
A498 renal = system: A498 renal
TK-10 renal = system: TK-10 renal
DU-145 prostate = system: DU-145 prostate
A549 NSCLC = system: A549 NSCLC
UO-31 renal = system: UO-31 renal
SNB-19 CNS = system: SNB-19 CNS
M14 melanoma = system: M14 melanoma
NCI-H522 lung = system: NCI-H522 lung
MDA-N = system: MDA-N
HCT-15 colon = system: HCT-15 colon
MOLT-4 leukemia = system: MOLT-4 leukemia
EKVX NSCLC = system: EKVX NSCLC
COLO 205 colon = system: COLO 205 colon
OVCAR-3 ovarian = system: OVCAR-3 ovarian
NCI/ADR-RES ovarian = system: NCI/ADR-RES ovarian
HCT-116 colon = system: HCT-116 colon
786-0 renal = system: 786-0 renal
SK-MEL-2 melanoma = system: SK-MEL-2 melanoma
SN12C renal = system: SN12C renal
OVCAR-8 ovarian = system: OVCAR-8 ovarian
HL-60(TB) leukemia = system: HL-60(TB) leukemia
SF-539 CNS = system: SF-539 CNS
K-562 leukemia = system: K-562 leukemia
SK-OV-3 ovarian = system: SK-OV-3 ovarian
SF-268 CNS = system: SF-268 CNS
T-47D breast = system: T-47D breast
BT-549 breast = system: BT-549 breast
OVCAR-4 ovarian = system: OVCAR-4 ovarian
MALME-3M melanoma = system: MALME-3M melanoma
UACC-62 melanoma = system: UACC-62 melanoma
UACC-257 melanoma = system: UACC-257 melanoma
SR leukemia = system: SR leukemia
MDA-MB-435 = system: MDA-MB-435
NCI-H226 lung = system: NCI-H226 lung
IGROV1 ovarian = system: IGROV1 ovarian
HOP-62 NSCLC = system: HOP-62 NSCLC
CCRF-CEM leukemia = system: CCRF-CEM leukemia
HT29 colon = system: HT29 colon
PC-3 prostate = system: PC-3 prostate
SF-295 CNS = system: SF-295 CNS
HOP-92 NSCLC = system: HOP-92 NSCLC
HS 578T breast = system: HS 578T breast
NCI-H23 lung = system: NCI-H23 lung

COc1ccc(C(=O)/C=C/c2ccncc2)cc1OC
TGI (LOX IMVI melanoma): 3.05 µM
TGI (SK-MEL-28 melanoma): 31.7 µM
TGI (MCF7 breast): 13.4 µM
TGI (U251 CNS): 23.2 µM
TGI (OVCAR-5 ovarian): 27.3 µM
TGI (SNB-75 CNS): 26.3 µM
TGI (ACHN renal): 28.1 µM
TGI (RXF 393 renal): 25.7 µM
TGI (MDA-MB-231 breast): 24.3 µM
TGI (SK-MEL-5 melanoma): 30.7 µM
TGI (CAKI-1 renal): 29.2 µM
TGI (A498 renal): 30.9 µM
TGI (TK-10 renal): 30 µM
TGI (DU-145 prostate): 31.6 µM
TGI (A549 NSCLC): 29.3 µM
TGI (UO-31 renal): 28.1 µM
TGI (SNB-19 CNS): 32.5 µM
TGI (M14 melanoma): 27.8 µM
TGI (NCI-H522 lung): 21.7 µM
TGI (MDA-N): 26.2 µM
TGI (HCT-15 colon): 28.7 µM
TGI (MOLT-4 leukemia): 86.7 µM
TGI (EKVX NSCLC): 30.5 µM
TGI (COLO 205 colon): 29.1 µM
TGI (OVCAR-3 ovarian): 18.6 µM
TGI (NCI/ADR-RES ovarian): 42.7 µM
TGI (HCT-116 colon): 18.9 µM
TGI (786-0 renal): 23.5 µM
TGI (SK-MEL-2 melanoma): 30.8 µM
TGI (SN12C renal): 29.2 µM
TGI (OVCAR-8 ovarian): 28.6 µM
TGI (HL-60(TB) leukemia): 5.02 µM
TGI (SF-539 CNS): 22.1 µM
TGI (K-562 leukemia): 6.11 µM
TGI (SK-OV-3 ovarian): 30.9 µM
TGI (SF-268 CNS): 30.5 µM
TGI (T-47D breast): 30.9 µM
TGI (BT-549 breast): 18.6 µM
TGI (OVCAR-4 ovarian): 23.2 µM
TGI (MALME-3M melanoma): 32.5 µM
TGI (UACC-62 melanoma): 30 µM
TGI (UACC-257 melanoma): 25.5 µM
TGI (SR leukemia): > 100 µM
TGI (MDA-MB-435): 28.1 µM
TGI (NCI-H226 lung): 30.6 µM
TGI (IGROV1 ovarian): 26.6 µM
TGI (HOP-62 NSCLC): 29.9 µM
TGI (CCRF-CEM leukemia): 18.6 µM
TGI (HT29 colon): 21.7 µM
TGI (PC-3 prostate): 30.6 µM
TGI (SF-295 CNS): 29.9 µM
TGI (HOP-92 NSCLC): 27.6 µM
TGI (HS 578T breast): 36.7 µM
TGI (NCI-H23 lung): 22.7 µM
